The values that follow come from US11639348B2, “Compositions and methods for neuraminidase detection and quantification” (priority 2018, dated 2023).

One may read the Km as the substrate concentration at which the rate is half of its maximum. In general, kcat refers to the maximal rate divided by the concentration of active sites.

The subject of this assay is A/Brisbane/59/2007 H1N1 Oseltamivir-Resistant NA. The assay is classed as biochemical, influenza A/Brisbane/59/2007 H1N1 Oseltamivir-Resistant. Conditions: pH 7.6.

Consider `CC(=O)NC1C(NC(=N)N)C(F)C(Oc2c(F)cc3c(C)cc(=O)oc3c2F)(C(=O)O)OC1[C@H](O)[C@H](O)CO` (stereo partly drawn) [compound 3, 5-Acetamido-4-guanidine-3-fluoro-3,4,5-trideoxy-2α-(4-methyl-6,8-difluoromethylumbelliferyl)-D-glycero-D-galactononulopyranosylnoic acid], for which the Km stood at 41.6 µM and the catalytic constant (kcat) was 35.7 s⁻¹.
